Values of other authors in patent US20230074252A1, “DOSAGES AND METHODS FOR TREATING PULMONARY ARTERIAL HYPERTENSION WITH RODATRISTAT” (Altavant Sciences GmbH, priority 2020, published 2023).

Legend:
CYP2C8 = target: T1, CYP2C8 (Homo sapiens, UniProt P10632); conditions: literature; cited from earlier work
T1 sequence (P10632 1-490): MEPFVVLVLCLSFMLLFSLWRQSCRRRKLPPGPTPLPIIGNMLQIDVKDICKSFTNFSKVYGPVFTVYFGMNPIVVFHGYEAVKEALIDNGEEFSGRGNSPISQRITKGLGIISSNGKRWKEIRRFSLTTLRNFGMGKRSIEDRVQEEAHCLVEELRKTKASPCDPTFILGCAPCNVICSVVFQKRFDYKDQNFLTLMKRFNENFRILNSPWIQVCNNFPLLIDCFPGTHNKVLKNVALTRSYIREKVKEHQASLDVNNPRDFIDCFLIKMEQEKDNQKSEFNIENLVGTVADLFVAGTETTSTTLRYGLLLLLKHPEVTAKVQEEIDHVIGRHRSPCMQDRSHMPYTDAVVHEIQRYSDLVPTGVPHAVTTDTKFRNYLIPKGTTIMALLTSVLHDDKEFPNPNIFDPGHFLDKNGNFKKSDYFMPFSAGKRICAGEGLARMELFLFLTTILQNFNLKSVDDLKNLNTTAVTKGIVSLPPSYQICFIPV

[1] = cited from earlier work; for Change in exposure on coadministration with clopidogrel: selexipag + clopidogrel (moderate inhibitor); for Increase in exposure (AUC) on coadministration with gemfibrozil: selexipag + gemfibrozil (strong CYP2C8 inhibitor); for Increase in exposure on coadministration with ritonavir: selexipag + ritonavir
prostacyclin receptor = prostacyclin receptor (Homo sapiens, UniProt P43119); conditions: cited from earlier work
[2] = human, in vivo; cited from earlier work
[3] = oral; cited from earlier work

prostacyclin receptor, sequence (P43119 whole entry, species assumed): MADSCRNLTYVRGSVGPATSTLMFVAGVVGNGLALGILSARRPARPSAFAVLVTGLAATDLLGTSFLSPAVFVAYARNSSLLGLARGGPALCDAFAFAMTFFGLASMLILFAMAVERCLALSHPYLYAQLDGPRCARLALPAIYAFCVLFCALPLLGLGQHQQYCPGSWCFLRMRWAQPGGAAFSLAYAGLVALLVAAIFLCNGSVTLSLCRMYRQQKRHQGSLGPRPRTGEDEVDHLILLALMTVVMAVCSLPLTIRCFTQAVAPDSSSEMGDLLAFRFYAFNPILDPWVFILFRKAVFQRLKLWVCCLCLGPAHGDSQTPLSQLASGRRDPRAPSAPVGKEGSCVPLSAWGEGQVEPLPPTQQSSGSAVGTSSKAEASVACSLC

| Structure (SMILES) | Change in exposure on coadministration with clopidogrel [1] | Increase in exposure (AUC) on coadministration with gemfibrozil [1] | Increase in exposure on coadministration with ritonavir [1] | also measured |
| --- | --- | --- | --- | --- |
| O=C1Nc2ccc(Cl)cc2[C@@](C#CC2CC2)(C(F)(F)F)O1 [efavirenz] |  |  |  | IC50 (CYP2C8): 4.8 µM |
| CC(C)N(CCCCOCC(=O)O)c1cnc(-c2ccccc2)c(-c2ccccc2)n1 [ACT-333679] | 2.7 fold | 11 fold | < 2 fold | Potency relative to selexipag (prostacyclin receptor): approximately 37 fold |
| CC(C)N(CCCCOCC(=O)NS(C)(=O)=O)c1cnc(-c2ccccc2)c(-c2ccccc2)n1 [selexipag] | did not impact | 2 fold | ~2 fold |  |
| CCCCC[C@H](O)CC[C@@H]1[C@H]2Cc3cccc(OCC(=O)O)c3C[C@H]2C[C@H]1O.[Na+] [treprostinil, (1R,2R,3aS,9aS)-[[2,3,3a,4,9,9a-Hexahydro-2-hydroxy-1-[(3S)-3-hydroxyoctyl]-1Hbenz[f]inden-5-yl]oxy]acetic acid monosodium salt] |  |  |  | Increase in AUC on coadministration with gemfibrozil [2]: ~2 fold; Increase in Cmax on coadministration with gemfibrozil [2]: ~2 fold; Bioavailability [3]: ~17% |
